In PubChem BioAssay (NCI):
“And” between values parts separate entries of the source, which are not always exact repeats. Equal entries are not always repeated.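 Step 1: Grow cells in 96-well plates. Step 2: Expose to compound for 48 hours at 5 concentrations. Step 3: Interpolate endpoints linearly; if unreached, use highest concentration. At the GI50, growth is halved. At the TGI there is no net growth.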

How the values were obtained:
Assay in all cases: growth of human tumour cells (NCI), 48 h
[1] = test system: SN12C renal
[2] = test system: SNB-19 CNS
[3] = test system: BT-549 breast
[4] = test system: KM12 colon
[5] = test system: SW-620 colon
[6] = test system: ACHN renal
[7] = test system: HOP-62 NSCLC
[8] = test system: NCI-H23 lung
[9] = test system: SR leukemia
[10] = test system: SF-539 CNS

Structure (SMILES)	TGI [1]	TGI [2]	TGI [3]	GI50 [4]	TGI [4]	TGI [5]	TGI [6]	TGI [7]	TGI [8]	GI50 [9]	TGI [9]	TGI [10]	GI50 [1]	GI50 [2]	GI50 [10]	GI50 [5]	GI50 [6]	GI50 [7]	GI50 [8]	GI50 [3]
CC(=O)OCC1OC(SC2=N/C(=C\c3ccc(Br)s3)C(=O)N2c2ccccc2)C(OC(C)=O)C(OC(C)=O)C1OC(C)=O (stereo unspecified)	> 100 µM	> 100 µM	> 100 µM	> 100 µM and 44.3 µM	> 100 µM	> 100 µM	> 100 µM	> 100 µM	> 100 µM	35.6 µM and 9.68 µM	> 100 µM									
C=C(C)CC(C(=O)O)c1ccc(C)cc1 (stereo unspecified)	> 100 µM	> 100 µM			> 100 µM	> 100 µM	> 100 µM	> 100 µM	> 100 µM		> 100 µM	> 100 µM								
O=CCCn1[nH]c(=O)ccc1=O	> 100 µM	> 100 µM				> 100 µM	> 100 µM		> 100 µM		> 100 µM	> 100 µM								
COc1ccc(O)c(/C=N\Nc2ccccc2)c1	> 100 µM	> 100 µM	> 100 µM			22.6 µM	> 100 µM	> 100 µM	67.7 µM			68.4 µM								
c1cc[c]([Ge]([O]c2cccc3cccnc23)([c]2ccccc2)[c]2ccccc2)cc1	16.5 µM	19.5 µM		1.95 µM	5.09 µM	7.46 µM	20.8 µM	25.6 µM	8.16 µM			11.3 µM	4.52 µM	7.15 µM	3.36 µM	3.02 µM	8.83 µM	12.7 µM	2.96 µM	
COc1ccc2cc3c4cc(OC)c(OC)cc4ccn3c2c1	> 100 µM	> 100 µM			> 100 µM	> 100 µM	> 100 µM	> 100 µM	> 100 µM		> 100 µM	> 100 µM								
COc1cccc(S(=O)(=O)NC2=NCCN2C(=S)SN2CCn3c2nsc3=S)c1	> 100 µM	> 100 µM	99.8 µM	30.5 µM	80.1 µM	> 100 µM	29.8 µM	> 100 µM		18 µM	51.3 µM	70 µM	36.1 µM	49.8 µM	27.3 µM	34 µM	15.6 µM	55.5 µM		29.9 µM
N#CC(Sc1ccccc1)C(N)=O (stereo unspecified)	> 100 µM	> 100 µM			> 100 µM	> 100 µM		> 100 µM	> 100 µM		> 100 µM	> 100 µM								
CC(=O)N1c2ccccc2N(C(C)=O)C1c1ccc(C2N(C(C)=O)c3ccccc3N2C(C)=O)[nH]1	> 100 µM	> 100 µM			> 100 µM	> 100 µM		> 100 µM	> 100 µM		> 100 µM	> 100 µM								
C[C@]12Cc3conc3C(O)=C1CC[C@@H]1C2CC[C@@]2(C)C1CC[C@@H]2O (stereo partly specified)	> 100 µM	> 100 µM			70.7 µM	> 100 µM	> 100 µM	> 100 µM	64.3 µM			44 µM								
COc1ccc(C(=O)/C=C/c2cc(-c3ccc(OC)c(OC)c3)n[nH]2)cc1OC	4.82 µM	4.16 µM	2.92 µM	0.625 µM	2.08 µM	5.41 µM	3.83 µM	5.6 µM	5.7 µM			2.54 µM	1.92 µM	1.67 µM	0.525 µM	1.5 µM	1.59 µM	1.73 µM	2.25 µM	1.44 µM
CCN1/C(=C/C(C)=C/c2sc3ccc4ccccc4c3[n+]2CC)Sc2ccc3ccccc3c21	1.05 µM			0.136 µM	0.276 µM	0.277 µM	0.614 µM	0.47 µM	1.19 µM			1.01 µM	0.189 µM		0.227 µM	0.114 µM	0.147 µM	0.192 µM	0.108 µM	
CCNCC(=O)Nc1ccc2c(c1)C(=O)c1ccc(NC(=O)CNCC)cc1C2=O	6.45 µM	12.1 µM			> 100 µM	12.8 µM	9.15 µM	20 µM	14.8 µM			16.2 µM								
C=CC12CCCCC1CC(C(=O)OC)=C(O)C2 (stereo unspecified)	> 100 µM	> 100 µM			> 100 µM	> 100 µM	> 100 µM	> 100 µM	> 100 µM		> 100 µM	> 100 µM								
COc1cc2c3c(n(CCCN=[N+]=[N-])c(=O)c2cc1OC)-c1ccccc1C3=O	> 100 µM	> 100 µM	> 100 µM	> 100 µM	> 100 µM	> 100 µM	4.65 µM	43.1 µM	21.8 µM			22.8 µM	13.7 µM	52.7 µM	4.73 µM	12 µM	1.21 µM	3.53 µM	3.23 µM	24.4 µM
C=CCCn1nc(-c2ccccc2)oc1=O	> 100 µM	> 100 µM			> 100 µM	> 100 µM	> 100 µM	> 100 µM	> 100 µM		> 100 µM	> 100 µM								
CN1CCN(C)C1c1ccc(C2N(C)CCN2C)cc1	> 100 µM	> 100 µM		46.5 µM	> 100 µM	> 100 µM	> 100 µM	> 100 µM	> 100 µM	28.5 µM	> 100 µM	> 100 µM	31.4 µM	39.5 µM	35.6 µM	25 µM	80 µM	82.8 µM	45.7 µM	
COc1ccc(C)c2sc(N(Cc3cccnc3)C(=O)c3ccc(C#N)cc3)nc12	> 100 µM	> 100 µM	> 100 µM	34.6 µM	> 100 µM	> 100 µM	> 100 µM	> 100 µM	> 100 µM			> 100 µM	44.2 µM	94.7 µM	55.6 µM	54.2 µM	34.7 µM	> 100 µM	43.5 µM	35 µM
COc1ccc(C2(Cl)C(Cl)(C(F)(F)F)C2(Cl)C(F)(F)F)cc1 (stereo unspecified)	29.2 µM	29.1 µM			27 µM	33.1 µM	30.4 µM	32.5 µM	27.8 µM		30.7 µM	28.9 µM								
Cc1nc2ccccc2c(=O)n1/N=C(\N=Nc1ccccc1)c1ccccc1Cl	> 68.1 µM	> 100 µM			> 100 µM	> 100 µM	> 100 µM	> 100 µM	> 100 µM			65.2 µM								
